Laboratory results taken from patent publication US20260356814A1, “INDOLINE DERIVATIVES AS SEROTONERGIC AGENTS USEFUL FOR THE TREATMENT OF DISORDERS RELATED THERETO” (MINDSET PHARMA INC., priority 2022, published 2026).

Each compound was assayed against T1, human 5-HT1A receptor (Homo sapiens, UniProt P08908) (assay: Human 5-HT1A: Radioligand binding assay ([3H]-8-Hydroxy-DPAT)). Conditions: [3H]-8-Hydroxy-DPAT displacement, 27° C., 90 min, pH 7.4; read-out: h5-HT1A, IC50.
T1 construct: expressed in transfected cells; host or cells: CHO (HTR1A&Ga15-CHO)
T1 sequence (P08908 1-422): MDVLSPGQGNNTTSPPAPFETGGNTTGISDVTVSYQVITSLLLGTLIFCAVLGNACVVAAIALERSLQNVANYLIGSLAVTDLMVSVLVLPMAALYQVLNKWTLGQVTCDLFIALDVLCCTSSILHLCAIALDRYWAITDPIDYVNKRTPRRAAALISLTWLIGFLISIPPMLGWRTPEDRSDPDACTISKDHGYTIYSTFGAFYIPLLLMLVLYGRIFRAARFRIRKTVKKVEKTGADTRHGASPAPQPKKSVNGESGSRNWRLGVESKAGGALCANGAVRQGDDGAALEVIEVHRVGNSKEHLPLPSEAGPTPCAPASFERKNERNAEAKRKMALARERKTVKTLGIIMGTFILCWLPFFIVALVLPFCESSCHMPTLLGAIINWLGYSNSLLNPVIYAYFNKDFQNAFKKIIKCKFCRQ
Description: The objective of this study was to evaluate the binding properties of test compounds on 5-hydroxytryptamine receptor 1A (5-HT1A).
• 1. The assay buffer was prepared following the table below.
• 2. 8 doses of reference and test compounds were prepared starting from 10 mM stock solution as required by 5-fold serial dilutions with 100% (v/v) DMSO. • 3. UniFilter-96 GF/B plate was pretreated: • i. 50 μl/well of 0.5% (v/v) PEI was added to UniFilter-96 GF/B plates. The plates were sealed and incubated at 4° C. for 3 hrs. • ii. After incubation, the plates were washed 3 times with ice-cold wash buffer (50 mM Tris, pH7.4). • 4. Assay plate was prepared: • i. Cell membrane was diluted with assay buffer and 100 μl/well was added to 96 round well plates to reach a concentration of 20 μg/well. • ii. 8 concentrations of reference or test compounds were prepared and 50 μl/well was added to 96 round deep well plates. • iii. [3H]-8-Hydroxy-DPAT was diluted with assay buffer to 2 nM (4X final concentration) and 50 μl/well was added to 96 round well plates. • 5. The plate was centrifuged at 1000 rpm for 30 secs and then agitated at 600 rpm, R.T. for 5 min. • 6. The plates were sealed and the plate was incubated at 27° C. for 90 min. • 7. The incubation was stopped by vacuum filtration onto GF/B filter plates followed by 4 times washing with ice-cold wash buffer (50 mM Tris, pH7.4). • 8. The plates were dried at 37° C. for 45 min. • 9. The filter plates were sealed and 40 μl/well of scintillation cocktail was added. • 10. The plate was read by using a Microbeta2 microplate counter.
• 1. For reference and test compounds, the results were expressed as % Inhibition, using the normalization equation: N=100−100×(U−C2)/(C1−C2), where U is the unknown value, C1 is the average of high controls, and C2 is the average of low controls. • 2. The IC50 was determined by fitting percentage of inhibition as a […] of compound concentrations with Hill equation using XLfit.
`[2H]C([2H])([2H])N1CCC[C@@H]1C([2H])([2H])N1CCc2ccccc21` [(R)-I-1, (R)-1-((1-(Methyl-d3)pyrrolidin-2-yl)methyl-d2) indoline] showed an IC50 of 444 nM. `[2H]C([2H])([2H])Oc1ccc2c(c1)N(C([2H])([2H])[C@H]1CCCN1C([2H])([2H])[2H])CC2` [(R)-I-28, (R)-6-(Methoxy-d3)-1-((1-(methyl-d3)pyrrolidin-2-yl)methyl-d2) indoline] gave an IC50 of 5.04 nM. Compound `COc1cc2c(cc1OC)N(C[C@H]1CCCN1C)CC2` [(R)-I-34, (R)-5,6-dimethoxy-1-((1-methylpyrrolidin-2-yl)methyl) indoline] has an IC50 of 7750 nM. For `COc1cccc2c1N(C[C@H]1CCCN1C)CC2` [(R)-I-46, (R)-7-Methoxy-1-((1-methylpyrrolidin-2-yl)methyl) indoline], the IC50 was 211 nM. Compound `COc1cccc2c1CCN2C[C@H]1CCCN1C` [(R)-I-47, (R)-4-Methoxy-1-((1-methylpyrrolidin-2-yl)methyl) indoline] has an IC50 of 15300 nM. Compound `[2H]C([2H])([2H])N1CCC[C@@H]1C([2H])([2H])N1CCc2ccc(OC)cc21` [(R)-I-57, (R)-6-Methoxy-1-((1-(methyl-d3)pyrrolidin-2-yl)methyl-d2) indoline] has an IC50 of 10 nM. `COc1ccc2c(c1)N(C[C@H]1CCCN1C)CC2` [(R)-I-58, (R)-6-Methoxy-1-((1-methylpyrrolidin-2-yl)methyl) indoline] was tested, and the IC50 was 13 nM. For `COc1ccc2c(c1)N(C[C@H]1CCCN1)CC2` [(R)-I-59, (R)-6-Methoxy-1-(pyrrolidin-2-ylmethyl) indoline], the IC50 was 85 nM. Compound `[2H]C([2H])([2H])N(CCN1CCc2ccc(OC)cc21)C([2H])([2H])[2H]` [Compound I-70, 2-(6-Methoxyindolin-1-yl)-N, N-bis(methyl-d3) ethan-1-amine] has an IC50 of 193 nM. For `[2H]C([2H])([2H])N(CCN1CCc2ccccc21)C([2H])([2H])[2H]` [Compound I-71, 2-(Indolin-1-yl)-N,N-bis(methyl-d3) ethan-1-amine], the IC50 was 1620 nM.
